Test results: BindingDB's records for doi:10.1016/j.bioorg.2017.01.007 (Panjab University, 2017)

These compounds were tested against T1, Tyrosine-protein phosphatase non-receptor type 1 (Homo sapiens, UniProt P18031) (assay: In Vitro PTP1B Inhibition Assay).
T1 sequence (P18031 whole entry): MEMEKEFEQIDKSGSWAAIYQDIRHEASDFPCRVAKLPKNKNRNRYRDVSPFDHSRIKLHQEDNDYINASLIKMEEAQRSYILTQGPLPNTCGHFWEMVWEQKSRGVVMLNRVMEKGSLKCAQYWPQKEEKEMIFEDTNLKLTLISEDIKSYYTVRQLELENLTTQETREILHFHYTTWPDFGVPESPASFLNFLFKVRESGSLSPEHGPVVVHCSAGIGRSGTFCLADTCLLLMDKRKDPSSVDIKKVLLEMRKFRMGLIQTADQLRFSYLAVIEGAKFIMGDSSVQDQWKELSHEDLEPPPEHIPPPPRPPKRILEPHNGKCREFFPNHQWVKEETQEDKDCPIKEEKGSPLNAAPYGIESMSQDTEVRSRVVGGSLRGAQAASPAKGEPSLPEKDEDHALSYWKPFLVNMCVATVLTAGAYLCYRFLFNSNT
Procedure: 10 mM stock solution (in assay buffer containing 1% DMSO) of the test compounds were prepared. Taking suitable aliquots from this stock solution, five different concentrations were made by dilutions. […] A 96 well microtiter plate was used for carrying out the assay using 10 mM DMSO as control. The reaction was carried out in 96 well, flatbottomed microtiter plates at 10 mM concentration using DMSO as control.

Row | SMILES | IC50
1 | COc1cc(/C=C2\SC(=O)NC2=O)ccc1OS(=O)(=O)c1c(C)cc(C)cc1C [(Z)-4-((2,4-dioxothiazolidin-5-ylidene)methyl)-2-methoxyphenyl-2,4,6-trimethylbenzenesulphonate (15)] | 26.9 µM
2 | COc1cc(/C=C2\SC(=O)NC2=O)ccc1OS(=O)(=O)c1ccccc1[N+](=O)[O-] [(Z)-4-((2,4-dioxothiazolidin-5-ylidene)methyl)-2-methoxyphenyl-2-nitrobenzenesulfonate (19)] | 50.4 µM
3 | COc1cc(/C=C2\SC(=O)NC2=O)ccc1OS(=O)(=O)Cc1ccccc1 [(Z)-4-((2,4-dioxothiazolidin-5-ylidene)methyl)-2-methoxyphenyl phenylmethanesulfonate (20)] | 59.9 µM
4 | COc1cc(/C=C2\SC(=O)NC2=O)ccc1OS(=O)(=O)c1ccc(Cl)cc1 [(Z)-4-((2,4-dioxothiazolidin-5-ylidene)methyl)-2-methoxyphenyl-4-chlorobenzenesulfonate (17)] | 25.3 µM
5 | COc1cc(/C=C2\SC(=O)NC2=O)ccc1OS(=O)(=O)c1ccc2ccccc2c1 [(Z)-4-((2,4-dioxothiazolidin-5-ylidene)methyl)-2-methoxyphenylnaphthalene-2-sulfonate (21)] | 61.4 µM
6 | COc1ccc(S(=O)(=O)Oc2ccc(/C=C3\SC(=O)NC3=O)cc2OC)cc1 [(Z)-4-((2,4-dioxothiazolidin-5-ylidene)methyl)-2-methoxyphenyl-4-methoxybenzene sulfonate (14)] | 28.2 µM

These reach a lower IC50. Values come first.

Row | IC50 | SMILES
7 | 21.8 µM | COc1cc(/C=C2\SC(=O)NC2=O)ccc1OS(=O)(=O)c1ccc(Br)cc1 [(Z)-4-((2,4-dioxothiazolidin-5-ylidene)methyl)-2-methoxyphenyl-4-bromobenzenesulfonate (18)]
8 | 19 µM | COc1cc(/C=C2\SC(=O)NC2=O)ccc1OS(=O)(=O)c1ccc(C)cc1 [(Z)-4-((2,4-dioxothiazolidin-5-ylidene)methyl)-2-methoxyphenyl-4-methylbenzenesulfonate (12)]
9 | 8.73 µM | COc1cc(/C=C2\SC(=O)NC2=O)ccc1OS(C)(=O)=O [(Z)-4-((2,4-dioxothiazolidin-5-ylidene)methyl)-2-methoxyphenylmethane sulfonate (16)]
10 | 7.31 µM | COc1cc(/C=C2\SC(=O)NC2=O)ccc1OS(=O)(=O)c1ccccc1 [(Z)-4-((2,4-dioxothiazolidin-5-ylidene)methyl)-2-methoxyphenylbenzenesulfonate (13)]
